Results taken from US8637670B2, “Imidazo [4,5-C]quinoline derivatives and their use in the treatment of tumors and/or inflammation” (Piramal Enterprises Limited, priority 2009, dated 2014).

Tests used:
PI3Kα kinase = molecular target: T1, PI3Kα kinase (Homo sapiens, UniProt P42336); assay: PI3Kα assay (32P incorporation into phosphatidylinositol, TLC densitometry); assay type: biochemical; conditions: At 100 nM
T1 construct: purchased Millipore, USA
Protocol: The assay was designed as in the reference, Cell, 2006, 125, 733-47 (Supplemental Data), the disclosure of which is incorporated by reference for the teaching of the assay.
The kinase reaction was carried out in a 25 μL volume in a 1.5 mL microcentrifuge tube. The reaction mixture consisted of kinase buffer (10 mM Hepes, pH 7.5, 50 mM MgCl2), 20 ng PI3Kα kinase (Millipore, USA), 12.5 μg phosphatidylinositol (PI), 10 μM ATP and 1 μCi ^32γ P dATP. Compounds of Example 1-40 were added at concentrations (stock solution was prepared in DMSO and subsequent dilutions were made in kinase buffer) as mentioned in the table. The reaction mixture was incubated at 30° C. for 20 minutes and was terminated by adding 1:1 mixture of MeOH and chloroform. The tube contents were mixed on a vortex mixer and centrifuged at 10000 rpm for 2 minutes. 10 μL of the organic (lower) phase was spotted on to a TLC plate (silica, mobile phase: n-propanol and 2 M glacial acetic acid in 65:35 ratio). The plates were dried and exposed to an X-ray film. The bands appearing as a result of ^32γ P incorporation in PI were quantitated using the QuantityOne (BioRad, USA) densitometry program. PI-103 (Calbiochem, USA) was used as a standard.

PI3K α = assay: PI3K activity assay, cell-based ELISA of AKT (Ser 473) phosphorylation; conditions: Homo sapiens, Ovarian cell line A2780, 20% FCS stimulation
Protocol: The assay was designed as in the reference, Biochemical Journal, 2000, 350, 717-722, the disclosure of which is incorporated by reference for the teaching of the assay.
Seed cells (Ovarian cell line A2780, ATCC) were plated in a 96 well microtitre plate at a density of 50,000 cells/cm^2 in appropriate complete cell culture medium. The cells were allowed to adhere for 18-24 hours. The cells were allowed to starve for 24 hours. The cells were pretreated (in triplicates) with the compounds of Example 1-40 (stock solution was prepared in DMSO and subsequent dilutions were made in kinase buffer) at a concentration of 10 μM for one hour. Then the cells were stimulated with 20% FCS for 30 minutes. A typical assay would consist of a set of unstimulated cells, a set of stimulated cells and a set of cells treated with compounds of Example 1-40 and a set of cells treated with the stimulator. The medium was discarded. The cells were fixed with 100 μL of 3.7% formaldehyde for 15 minutes. The formaldehyde was discarded by inverting the plate and tapping it on a thick tissue paper layer to remove traces. The cells were washed and permeabilized with 200 μL PBS+Triton-X 100 solution (hereafter referred to as PBS-Triton, containing 0.1% triton-X 100 in 1×PBS) three times, incubating the cells each time for 5 minutes. 100 μL blocking solution (10% FCS in PBS-Triton) was added and incubated for 1 hour at 25° C. The blocking solution was discarded and cells were incubated with the primary antibody in PBS-Triton at a dilution of 1:500 for 1 hour at RT (25° C.). [The primary antibody is Phospho-AKT (Ser 473); Cell Signaling; USA, Cat. No. 9271]. The primary antibody solution was discarded and the cells were washed 3 times with PBS-Triton solution and incubated with the HRP-conjugated secondary antibody in PBS-Triton at a dilution of 1:500 for 1 hour at RT (25° C.). The cells were washed 3 times with PBS-Triton followed by two washes with PBS (to remove traces of triton-X 100). The OPD (o-phenylene diamine dihydrochloride) substrate was prepared for detection of the signal by dissolving one tablet set (two tablets) of SigmaFast OPD (Sigma, USA, Cat No. P9187) in 20 mL distilled water. It should be kept protected from light. 100 μL OPD solutions was added to the wells and the plate was incubated in the dark for 3-5 minutes (depending upon the development of the color). The reaction was stopped by adding 50 μL 2 NH2SO4. The absorbance was measured at 490 nm. The values were expressed in the treated samples, in terms of percentage or fold decrease in AKT phosphorylation with respect to the induced sample. PI-103 (Calbiochem, USA) was used as a standard.

A549 = assay: Cytotoxicity, propidium iodide assay, A549; assay type: cell-based; conditions: Homo sapiens; Lung, A549, 48 hours treatment; read-out: IC50, C1a (A549)
Protocol: (§1) The assay was designed as in the reference, Anticancer Drugs, 2002, 13, 1-8, the disclosure of which is incorporated by reference for the teaching of the assay.
(§2) Cells from cell lines as mentioned in the table given below were seeded at a density of 3000 cells/well in a white opaque 96-well plate. Following incubation at 37° C./5% CO2 for a period of 18-24 hours, the cells were treated with various concentrations (stock solution was prepared in DMSO and subsequent dilutions were made in media as per ATCC guidelines) of the compounds of Example 1-40 was for a period of 48 hours. At the end of treatment, the spent culture medium was discarded, the cells were washed with 1×PBS and 200 μl of 7 μg/ml propidium iodide was added to each well. The plates were frozen at −70° C. for at least 24 hours. For analysis, the plates were brought to RT, allowed to thaw and were read in PoleStar fluorimeter with the fluorescence setting. The percentage of viable cells in the non-treated set of wells was considered to be 100 and the percentage viability following treatment was calculated accordingly. IC50 values were calculated from graphs plotted using these percentages. Table 4 depicts the IC50 values of compounds of Example 1-40 in individual cell lines.
(§3) The abbreviations for the Cell Lines as used in Table 4 are: […]

H460 = assay: Cytotoxicity, propidium iodide assay, H460; assay type: cell-based; conditions: Homo sapiens, NCI-H460; Lung, H460, 48 hours treatment; read-out: IC50, C1b (H460)
Protocol: as §1, §2, §3

PC3 = assay: Cytotoxicity, propidium iodide assay, PC3; assay type: cell-based; conditions: Homo sapiens, PC-3; Prostate, PC3, 48 hours treatment; read-out: IC50, C2a (PC3)
Protocol: as §1, §2, §3

OVCAR 3 = assay: Cytotoxicity, propidium iodide assay, OVCAR 3; assay type: cell-based; conditions: Homo sapiens; Ovarian, OVCAR 3, 48 hours treatment; read-out: IC50, C3b (OVCAR 3)
Protocol: as §1, §2, §3

HCT116 = assay: Cytotoxicity, propidium iodide assay, HCT116; assay type: cell-based; conditions: Homo sapiens, HCT-116; Colon, HCT116, 48 hours treatment; read-out: IC50, C4a (HCT116)
Protocol: as §1, §2, §3

U 373 = assay: Cytotoxicity, propidium iodide assay, U 373; assay type: cell-based; conditions: Homo sapiens, U373 MG; Glioblastoma, U 373, 48 hours treatment; read-out: IC50, C7a (U 373)
Protocol: as §1, §2, §3

U 87 MG = assay: Cytotoxicity, propidium iodide assay, U 87 MG; assay type: cell-based; conditions: Homo sapiens, Glioblastoma, 48 hours treatment, read-out: IC50, C7b (U 87 MG)
Protocol: as §1, §2, §3

IL-6 = assay: Human monocyte assay, LPS-stimulated IL-6 (ELISA); assay type: cell-based; conditions: human monocytes, 1 μg/ml LPS, 5 hours
Protocol: (§4) The assay was designed as in the reference, Physiol. Res., 2003, 52, 593-598, the disclosure of which is incorporated by reference for the teaching of the assay.
(§5) Peripheral blood mononuclear cells (hPBMC) were harvested from human blood and suspended in RPMI 1640 culture medium containing 10% FCS, 100 U/mL penicillin and […] streptomycin (assay medium). Monocytes in the hPBMCs were counted using a Coulter Counter following which the cells were resuspended at 2×10^5 monocytes/mL. A cell suspension containing 2×10^4 monocytes was aliquoted per well of a 96-well plate. Subsequently, the hPBMCs were incubated for 4-5 hours at 37° C. under 5% CO2 (During the incubation, the monocytes adhered to the bottom of 96-well plastic culture plate). Following the incubation, the non-adherent lymphocytes were washed with assay medium and the adherent monocytes re-fed with assay medium. After a 48-hour incubation period (37° C., 5% CO2), monocytes were pretreated with various concentrations of compounds of Example 1-40 (prepared in DMSO) or vehicle (0.5% DMSO) for 30 minutes and stimulated with 1 μg/ml LPS (Escherchia coli 0111:B4, Sigma Chemical Co., St. Louis, Mo.). The incubation was continued for 5 hours at 37° C., 5% CO2. Supernatants were harvested, assayed for IL-6 and TNF-α by ELISA as described by the manufacturer (BD Biosciences, USA). Dexamethasone (10 μM) was used as standard for this assay. The 50% inhibitory concentration (IC50) values were calculated by a nonlinear regression method. In all experiments, a parallel plate was run to ascertain the toxicity of compounds of Example 1-40. The toxicity was determined using the MTS assay as described in Am. J. Physiol. Cell Physiol., 2003, 285, C813-C822.

A2780 = assay: Cytotoxicity, propidium iodide assay, A2780; assay type: cell-based; conditions: Homo sapiens; Ovarian, A2780, 48 hours treatment; read-out: IC50, C3a (A2780)
Protocol: as §1, §2, §3

PANC 1 = assay: Cytotoxicity, propidium iodide assay, PANC 1; assay type: cell-based; conditions: Homo sapiens; Pancreatic, PANC 1, 48 hours treatment; read-out: IC50, C5a (PANC 1)
Protocol: as §1, §2, §3

TNF-α = assay: Human monocyte assay, LPS-stimulated TNF-α (ELISA); assay type: cell-based; conditions: human monocytes, 1 μg/ml LPS, 5 hours, read-out: TNFα (IC50)
Protocol: as §4, §5

T1 sequence (P42336 whole entry): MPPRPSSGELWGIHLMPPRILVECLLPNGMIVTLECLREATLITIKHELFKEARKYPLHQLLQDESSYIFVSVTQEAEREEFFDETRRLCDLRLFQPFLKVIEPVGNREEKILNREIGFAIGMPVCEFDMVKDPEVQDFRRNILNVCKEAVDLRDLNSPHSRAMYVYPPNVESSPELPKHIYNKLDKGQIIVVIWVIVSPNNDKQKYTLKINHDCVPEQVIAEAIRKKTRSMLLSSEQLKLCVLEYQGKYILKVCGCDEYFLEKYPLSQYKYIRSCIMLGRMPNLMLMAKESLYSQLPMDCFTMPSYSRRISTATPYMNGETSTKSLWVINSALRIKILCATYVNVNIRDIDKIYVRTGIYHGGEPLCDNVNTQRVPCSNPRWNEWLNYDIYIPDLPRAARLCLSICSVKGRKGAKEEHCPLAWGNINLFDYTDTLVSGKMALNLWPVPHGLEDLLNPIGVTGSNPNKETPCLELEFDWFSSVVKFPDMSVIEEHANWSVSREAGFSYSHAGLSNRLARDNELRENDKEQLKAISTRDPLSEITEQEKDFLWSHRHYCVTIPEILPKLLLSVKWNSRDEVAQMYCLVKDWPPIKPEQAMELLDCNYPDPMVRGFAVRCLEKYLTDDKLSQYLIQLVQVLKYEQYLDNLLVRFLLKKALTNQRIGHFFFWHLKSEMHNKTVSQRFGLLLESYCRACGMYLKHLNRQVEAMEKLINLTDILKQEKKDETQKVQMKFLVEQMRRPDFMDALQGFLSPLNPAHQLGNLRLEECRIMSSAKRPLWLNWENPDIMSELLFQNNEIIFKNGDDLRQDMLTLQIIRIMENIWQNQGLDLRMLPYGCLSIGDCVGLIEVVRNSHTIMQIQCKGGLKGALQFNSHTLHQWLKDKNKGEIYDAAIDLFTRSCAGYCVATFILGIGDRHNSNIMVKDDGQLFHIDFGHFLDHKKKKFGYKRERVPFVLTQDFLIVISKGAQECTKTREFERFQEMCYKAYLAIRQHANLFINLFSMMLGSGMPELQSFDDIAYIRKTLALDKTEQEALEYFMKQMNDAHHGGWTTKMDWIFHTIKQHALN
T1 sequence (P27986 whole entry partner): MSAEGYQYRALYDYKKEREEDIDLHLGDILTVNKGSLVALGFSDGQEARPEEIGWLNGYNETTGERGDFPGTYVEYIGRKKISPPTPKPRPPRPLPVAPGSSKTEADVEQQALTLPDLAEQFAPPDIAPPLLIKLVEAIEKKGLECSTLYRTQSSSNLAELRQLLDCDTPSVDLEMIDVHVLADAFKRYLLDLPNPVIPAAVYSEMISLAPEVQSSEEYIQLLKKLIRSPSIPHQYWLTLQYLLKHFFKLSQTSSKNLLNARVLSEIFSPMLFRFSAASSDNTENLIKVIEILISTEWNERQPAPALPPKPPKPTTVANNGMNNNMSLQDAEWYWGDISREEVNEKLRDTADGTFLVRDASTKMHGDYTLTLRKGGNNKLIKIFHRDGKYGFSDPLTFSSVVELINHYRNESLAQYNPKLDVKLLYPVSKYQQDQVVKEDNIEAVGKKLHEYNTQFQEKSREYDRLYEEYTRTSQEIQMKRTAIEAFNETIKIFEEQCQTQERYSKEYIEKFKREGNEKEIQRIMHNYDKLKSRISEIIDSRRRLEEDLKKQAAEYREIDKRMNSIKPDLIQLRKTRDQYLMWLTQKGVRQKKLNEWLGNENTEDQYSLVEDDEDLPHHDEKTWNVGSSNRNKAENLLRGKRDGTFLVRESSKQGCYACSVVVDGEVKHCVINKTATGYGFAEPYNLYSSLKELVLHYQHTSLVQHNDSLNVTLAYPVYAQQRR

Cc1cc(C)cc(S(=O)(=O)n2c(=O)n(-c3ccc(C(C)(C)C#N)cc3)c3c4cc(Br)ccc4ncc32)c1 [Example 6, 2-(4-(8-Bromo-3-(3,5-dimethylphenylsulfonyl)-2-oxo-2,3-dihydro-1H-imidazo[4,5-c]quinolin-1-yl)phenyl)-2-methylpropanenitrile]
inhibition at 0.1 µM (PI3Kα kinase): > 50%
inhibition at 10 µM (PI3K α): 10 to 50%
IC50 (A549): > 3000 nM
IC50 (H460): > 3000 nM
IC50 (PC3): 1000 to 3000 nM
IC50 (OVCAR 3): > 3000 nM
IC50 (HCT116): > 3000 nM
IC50 (U 373): > 3000 nM
IC50 (U 87 MG): > 3000 nM
IC50 (IL-6): > 30000 nM

CC(=O)n1c(=O)n(-c2ccc(C(C)(C)C#N)cc2)c2c3cc(Cl)ccc3ncc21 [Example 36, 2-(4-(3-Acetyl-8-chloro-2-oxo-2,3-dihydro-1H-imidazo[4,5-c]quinolin-1-yl)phenyl)-2-methylpropanenitrile]
inhibition at 0.1 µM (PI3Kα kinase): 10 to 50%
IC50 (A549): 1000 to 3000 nM
IC50 (H460): ≤ 1000 nM
IC50 (PC3): > 3000 nM
IC50 (OVCAR 3): > 3000 nM
IC50 (HCT116): > 3000 nM
IC50 (U 373): > 3000 nM
IC50 (U 87 MG): > 3000 nM

CC(C)(C#N)c1ccc(-n2c(=O)n(S(=O)(=O)c3cccc4cccnc34)c3cnc4ccc(Br)cc4c32)cc1 [Example 11, 2-(4-(8-Bromo-2-oxo-3-(quinolin-8-ylsulfonyl)-2,3-dihydro-1H-imidazo[4,5-c]quinolin-1-yl)phenyl)-2-methylpropanenitrile]
IC50 (A549): > 3000 nM
IC50 (A2780): > 3000 nM
IC50 (HCT116): > 3000 nM
IC50 (PANC 1): > 3000 nM
IC50 (IL-6): > 30000 nM

Cc1ccc([N+](=O)[O-])cc1S(=O)(=O)n1c(=O)n(-c2ccc(C(C)(C)C#N)cc2)c2c3cc(Br)ccc3ncc21 [Example 4, 2-(4-(8-Bromo-3-(2-methyl-5-nitrophenylsulfonyl)-2-oxo-2,3-dihydro-1H-imidazo[4,5-c]quinolin-1-yl)phenyl)-2-methylpropanenitrile]
IC50 (A549): 1000 to 3000 nM
IC50 (H460): 1000 to 3000 nM
IC50 (PC3): 1000 to 3000 nM
IC50 (OVCAR 3): > 3000 nM
IC50 (HCT116): > 3000 nM
IC50 (U 373): > 3000 nM
IC50 (U 87 MG): 1000 to 3000 nM
IC50 (IL-6): 1000 to 10000 nM

CC(C)(C#N)c1ccc(-n2c(=O)n(C(=O)Nc3ccccc3Br)c3cnc4ccc(Br)cc4c32)cc1 [Example 33, 8-Bromo-N-(2-bromophenyl)-1-(4-(2-cyanopropan-2-yl)phenyl)-2-oxo-1H-imidazo[4,5-c]quinoline-3(2H)-carboxamide]
inhibition at 0.1 µM (PI3Kα kinase): > 50%
IC50 (A549): 1000 to 3000 nM
IC50 (H460): 1000 to 3000 nM
IC50 (PC3): > 3000 nM
IC50 (OVCAR 3): > 3000 nM
IC50 (HCT116): > 3000 nM
IC50 (U 373): > 3000 nM
IC50 (U 87 MG): > 3000 nM
IC50 (IL-6): > 30000 nM
IC50 (TNF-α): ≤ 1000 nM

CC(C)(C#N)c1ccc(-n2c(=O)n(S(=O)(=O)c3cccc(C(F)(F)F)c3)c3cnc4ccc(Br)cc4c32)cc1 [Example 13, 2-(4-(8-Bromo-2-oxo-3-(3-(trifluoromethyl)phenylsulfonyl)-2,3-dihydro-1H-imidazo[4,5-c]quinolin-1-yl)phenyl)-2-methylpropanenitrile]
inhibition at 0.1 µM (PI3Kα kinase): 10 to 50%
IC50 (A549): > 3000 nM
IC50 (H460): > 3000 nM
IC50 (PC3): > 3000 nM
IC50 (OVCAR 3): > 3000 nM
IC50 (HCT116): > 3000 nM
IC50 (U 373): > 3000 nM
IC50 (U 87 MG): > 3000 nM

Cc1ccc(S(=O)(=O)n2c(=O)n(-c3ccc(C(C)(C)C#N)cc3)c3c4cc(Br)ccc4ncc32)cc1F [Example 5, 2-(4-(8-Bromo-3-(3-fluoro-4-methylphenylsulfonyl)-2-oxo-2,3-dihydro-1H-imidazo[4,5-c]quinolin-1-yl)phenyl)-2-methylpropanenitrile]
IC50 (A549): 1000 to 3000 nM
IC50 (H460): 1000 to 3000 nM
IC50 (PC3): 1000 to 3000 nM
IC50 (OVCAR 3): > 3000 nM
IC50 (HCT116): > 3000 nM
IC50 (U 373): > 3000 nM
IC50 (U 87 MG): 1000 to 3000 nM
